Marks after values point to notes of the source that are not given here.
Key:
[1] = system: aberrant crypt foci (ACF) in AOM rat model; experiment: Development of ACF in AOM rat model, 5 weeks study; assay type: in vivo, Male albino Fischer-344 rats; conditions: diet with UDCA 0.4%, 6-FUDCA 0.4% or piroxicam 75 ppm, means ± Std. Dev., N=10
Text: Animals. Male albino Fischer-344 rats, initially weighing approximately 90-130 g, were used in these experiments. All diets were obtained from Dyets, Inc. (Bethlehem, Pa.). On arrival, the animals were quarantined for 1 week and then divided into the following experimental groups: Group 1—Standard AIN-76 diet only with no added agents (control group). Group 2—AIN-76 diet plus UDCA 0.4%. Group 3—AIN-76 diet plus 6-FUDCA 0.4%. Group 4—AIN-76 diet plus piroxicam 75 ppm (included for a known positive drug control). Protocol of Study. All rats were fed their assigned diets for 2 weeks, following which 10 rats in each group (except control group) were given s.c. injections of AOM (Sigma Chemical Co.; 15 mg/kg body weight) once a week for 2 weeks, while 5 rats received AOM vehicle. Control rats received AOM vehicle only. A week later (at week 3) rats received a second dose of carcinogen (AOM 15 mg/kg) while control rats received AOM vehicle. Each group was then maintained on their respective experimental diet for an additional 3 weeks. At this time, day 42, the rats were sacrificed; their colons were removed, opened, washed with normal saline, and examined macroscopically and microscopically for the presence of tumors. Aberrant crypts were quantified by direct microscopic counting of methylene blue stained whole colon. Stool specimens were removed from the colon at the time of termination, snap frozen, and maintained frozen for subsequent analysis of fecal bile acids. Statistical Methods. The data were analyzed using the Aspin-Welch t-test, two sided. A value of P<0.05 was considered significant.

[2] = system: aberrant crypt foci (ACF) in AOM rat model; experiment: Development of ACF in AOM rat model, 12 weeks study; assay type: in vivo, Male albino Fischer-344 rats; conditions: for Multiplicity of ACF / Nr of ACF / Total AC count: AOM rat model, 12 weeks study, diet supplementation, means ± Std. Dev., N=12
Method: Animals. Male albino Fischer-344 rats, initially weighing approximately 90-130 g, were used in these experiments. All diets were obtained from Dyets, Inc. (Bethlehem, Pa.). On arrival, the animals were quarantined for 1 week and then divided into the following experimental groups: Protocol of Study. […] Control rats received AOM vehicle only. A week later (at week 3) rats received a second dose of carcinogen (AOM 15 mg/kg) while control rats received AOM vehicle. […] Aberrant crypts were quantified by direct microscopic counting of methylene blue stained whole colon. Stool specimens were removed from the colon at the time of termination, snap frozen, and maintained frozen for subsequent analysis of fecal bile acids. Statistical Methods. The data were analyzed using the Aspin-Welch t-test, two sided. A value of P<0.05 was considered significant. The protocol for this Example was the same as that for Example I except that 12 rats were included in each AOM-treated group and 6 rats in each control group. Carcinogen was administered on Days 14 and 21. The rats were then continued on the diets containing the experimental drugs for an additional 10 weeks. The following tables set forth the data obtained in the study.

[3] = Physicochemical properties of 6-FUDCA compared with UDCA
Text: Additionally, the retention time on C-18 reverse phase HPLC was different for the two fluorinated diastereoisomers. […] The invention relates to the single isomers or diastereoisomers of 6-FUDCA and mixtures thereof.

[4] = system: intestinal bacterial flora; conditions: 7-dehydroxylation by intestinal bacterial flora; cited from earlier work
[5] = Analysis of fecal bile acid levels in the diet-supplemented rats; assay type: in vivo
Method: Protocol of Study. All rats were fed their assigned diets for 2 weeks, following which 10 rats in each group (except control group) were given s.c. injections of AOM (Sigma Chemical Co.; 15 mg/kg body weight) once a week for 2 weeks, while 5 rats received AOM vehicle. Control rats received AOM vehicle only. A week later (at week 3) rats received a second dose of carcinogen (AOM 15 mg/kg) while control rats received AOM vehicle. Each group was then maintained on their respective experimental diet for an additional 3 weeks. At this time, day 42, the rats were sacrificed; their colons were removed, opened, washed with normal saline, and examined macroscopically and microscopically for the presence of tumors. Aberrant crypts were quantified by direct microscopic counting of methylene blue stained whole colon. Stool specimens were removed from the colon at the time of termination, snap frozen, and maintained frozen for subsequent analysis of fecal bile acids.
Therefore, 6-FUDCA enriches rat bile with therapeutic bile acid to a greater extent then can UDCA. Furthermore, 6-FUDCA reduces the formation of bile acids which are potentially toxic to the colonic mucosa.

## CN1C(C(=O)Nc2ccccn2)=C(O)c2ccccc2S1(=O)=O [PIROXICAM, piroxicam]
[1]
  Multiplicity of ACF: 3.0 ± 0.2
  Nr of ACF: 62.9 ± 9.4^b)
  Total AC count: 190.1 ± 30.7^b)
[2]
  Multiplicity of ACF: 3.4 ± 0.3
  Nr of ACF: 156.3 ± 34.0^b)
  Total AC count: 625.3 ± 136.1^b)

## C[C@H](CCC(=O)O)[C@H]1CC[C@H]2[C@@H]3[C@@H](O)[C@H](F)[C@@H]4C[C@H](O)CC[C@]4(C)[C@H]3CC[C@]12C [6-FUDCA, 3α, 7βdihydroxy-6α-fluoro-5β-cholanoic acid]
[3]; 6-α-epimer, with respect to UDCA
  Hydrophilicity (C-18 reverse phase HPLC): increased hydrophilicity with respect to UDCA
[3]; compared with UDCA
  Critical micellar concentration: slightly lower
  Critical micellar pH: lower than that of UDCA
  Water solubility: higher than that of UDCA
[4]
  Resistance to bacterial dehydroxylation: extremely resistant to bacterial dehydroxylation
[1]
  Multiplicity of ACF: 1.9 ± 0.1^b)
  Nr of ACF: 84.4 ± 16.3
  Total AC count: 160.7 ± 34.6^b)
[2]
  Multiplicity of ACF: 2.7 ± 0.3^b)
  Nr of ACF: 130.1 ± 35.5^b)
  Total AC count: 350.6 ± 87.3^b)
[2]; rats treated with 6-FUDCA, AOM model
  Aberrant crypts per aberrant crypt focus (FIG. 3): aberrant crypt foci with fewer aberrant crypts
[5]; 6-FUDCA rats compared with UDCA rats
  DC and hyoDC in the feces: less DC and hyoDC are seen in the feces of 6-FUDCA rats than in UDCA rats
[5]; rat, fecal bile acid analysis
  Metabolism by bacteria in the gut: not metabolized by bacteria in the gut

## C[C@H](CCC(=O)O)[C@H]1CC[C@H]2[C@@H]3[C@@H](O)C[C@@H]4C[C@H](O)CC[C@]4(C)[C@H]3CC[C@]12C [UDCA, ursodeoxycholic acid]
[1]
  Multiplicity of ACF: 2.0 ± 0.2^b)
  Nr of ACF: 108.1 ± 34.7
  Total AC count: 218.3 ± 73.3^b)
[2]
  Multiplicity of ACF: 2.8 ± 0.2^b)
  Nr of ACF: 161.2 ± 37.8^b)
  Total AC count: 445.5 ± 87.4^b)
